{"source": "paper PMC4108065", "about": "“Inflammation and pancreatic cancer: molecular and functional interactions between S100A8, S100A9, NT-S100A8 and TGFβ1” (Cell Communication and Signaling : CCS, 2014)", "key": {"[1]": {"system": "BxPC3-SMAD4+ IκBα and Akt phosphorylation", "experiment": "Signaling western blot in BxPC3-SMAD4+ cells", "format": "cell-based, human", "settings": "BxPC3-SMAD4+ vs BxPC3, 10 min, 10 nM S100A8", "description": "The pancreatic cancer cell lines used were: Panc1 and Suit2, donated by Prof Aldo Scarpa (University of Verona, Italy); BxPC3, from Dr Andrea Galli (University of Florence, Italy); MiaPaCa2, Capan1 and the human embryonic kidney Hek293 cell lines, supplied by the American Type Culture Collection (Manassas, VA, USA). BxPC3, Capan1 and Panc1 were cultured in RPMI (Gibco/BRL, Gaithhersburg, MD, USA) supplemented with 10% (BxPC3 and Panc1) and 20% (Capan1) fetal calf serum (FCS) (Gibco/BRL), 1% L-glutamine (Gibco/BRL) and 0.1% gentamycin (Gibco/BRL). MiaPaCa2 and Hek293 were cultured in DMEM (Gibco/BRL) supplemented with 10% FCS, 2% L-glutamine and 0.1% Gentamycin. BxPC3 cells were transfected with the expression vector pBK-cytomegalovirus (CMV)-SMAD4/DPC4, as previously described. One SMAD4/DPC4-expressing clone (BxPC3-SMAD4+) was used for the experiments. Smad4 silencing of MiaPaCa2 cells was performed as previously described.\nFive million cells were seeded in Petri dishes (ø 10 cm) and cultured for 24 hours in their respective complete media prior to starting the experiments. […] Lysates were centrifuged for 10 min at 14,000 rpm at 4°C and, in the supernatants, total proteins were measured using the Bio-Rad protein assay (Bio-Rad Laboratories, Milano, Italy). […]"}, "[2]": {"experiment": "S100A8 proteolysis assay in Capan1 conditioned media (MALDI-TOF/MS)", "format": "in vitro ADME, human", "settings": "3 μM S100A8, Capan1 conditioned medium, 24 hours at 37°C, MALDI-TOF/MS low molecular weight spectra", "description": "To obtain BxPC3 and Capan1 conditioned media (CM), 400,000 cells were cultured (75 cm^2 flasks) for 96 hours in RPMI supplemented with 1% FCS and 0.1% gentamycin. In parallel, Ukrain (Nowicky Pharma, Wien, Austria) treated Capan1 CM were obtained as above, the difference being that Ukrain was added 24 hours after cells had been seeded at the final concentration of 5 μM. Complete culture media maintained in a cell culture incubator for 96 hours (negative control), Capan1 and Ukrain-treated Capan1 CM were centrifuged at 1,500 rpm for 10 min, and then immediately mixed with 3 μM S100A8 or 2.5 μM S100A9 (ProSpec-Tany TechnoGene, Ness Ziona, Israel) and maintained at 37°C overnight before MALDI-TOF/MS analyses. Complete culture media, BxPC3 and Capan1 CM, treated as described above, were incubated at 37°C with 200 μM of the S100A8 1–19 N-terminal aminoacid sequence (NT-S100A8) (Primm, Milano, Italy) for 1, 2, 3, 4, 5, 6, 12 and 24 hours before MALDI-TOF/MS analyses. At least three independent sets of experiments were performed for both assays.\nCell culture media were first desalted and purified by ZipTip C18 pipette tips, following the procedure described in the ZipTip user’s guide. […]"}}, "data": [{"substance": "S100A8: inflammatory calcium binding protein S100A8 (ProSpec-Tany TechnoGene)", "values": [{"measurement": "IκBα phosphorylation in Smad4 expressing BxPC3", "setting": "[1]", "value": "reduced IκBα phosphorylation"}, {"measurement": "fragmentation of S100A8 in conditioned medium", "setting": "[2]", "value": "a new peptide was found at 2280 m/z"}]}]}
